The results in this text go back to ChEMBL document CHEMBL1201862, “PubChem BioAssay data set” (2004).

Some test systems named below: A498; A549; BT-549; HOP-62; Hs-578T; M14; MDA-MB-435; MDA-N; Malme-3M; NCI/ADR-RES; PC-3; SK-MEL-2; SK-OV-3; SNB-75; T47D; TK-10; U-251; UACC-257; UACC-62; NCI-H522.
Holding throughout (assay): NCI-60 cell line screen, 48 h

Values joined by “and” are separate entries in the source; they are usually repeats but may differ in a detail not shown here. Identical values can stand only once.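 Exposure lasted 48 hours, with cells grown in 96-well plates and compounds tested at five concentrations. GI50 marks 50% less growth.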 Active and inactive are the calls of the source. Rule as the data show it: active = GI50 up to about 1.1 µM and inactive = higher.

On to `O=C(N/N=C\c1ccc([N+](=O)[O-])cc1)c1ccccc1Nc1ccccc1C(=O)N/N=C/c1ccc([N+](=O)[O-])cc1`, for which the GI50 in the test on A498 is > 100 µM (inactive); with A549, > 100 µM (inactive); with BT-549 it was > 100 µM (inactive); in the test on HOP-62 it was > 100 µM (inactive); with Hs-578T it was > 100 µM (inactive); in the test with M14, 27.3 µM (inactive). Moreover, the GI50 was > 100 µM (inactive) in the test on MDA-MB-435; > 100 µM (inactive) in the test on MDA-N; 39.4 µM (inactive) with Malme-3M; > 100 µM (inactive) in the test on NCI/ADR-RES; > 100 µM (inactive) in the test with PC-3; > 100 µM (inactive) with SK-MEL-2. For the same molecule, the GI50 with SK-OV-3, with SNB-75, in the test on T47D, with TK-10, in the test with U-251 and in the test with UACC-257 was > 100 µM (inactive) each time. Further, the GI50 with UACC-62 was > 100 µM (inactive).
Consider `O=c1c2ccccc2nc2[nH][nH]c(=S)n12`, for which the GI50 was > 100 µM (inactive) with A498; > 100 µM (inactive) with A549; > 100 µM (inactive) in the test on BT-549; > 100 µM (inactive) with HOP-62; 43.3 µM (inactive) in the test on Hs-578T; > 100 µM (inactive) in the test with M14. For the same molecule, the GI50 with MDA-MB-435, with MDA-N, in the test on NCI/ADR-RES, in the test on PC-3, in the test with SK-MEL-2 and in the test on SK-OV-3 was > 100 µM (inactive) each time. Moreover, the GI50 in the test with SNB-75 was 48.4 µM (inactive); in the test on T47D, > 100 µM (inactive); in the test on TK-10, > 100 µM (inactive); in the test on U-251, > 100 µM (inactive); with UACC-257, > 100 µM (inactive); in the test on UACC-62, > 100 µM (inactive).
With `COCOc1c(C(OCOC)c2cnc(Sc3ccccc3)n2C)ccc(OC)c1OC` (configuration not stated), the GI50 was > 100 µM (inactive) in the test with A549; > 100 µM (inactive) in the test with BT-549; > 100 µM (inactive) with HOP-62; 94.4 µM (inactive) with Hs-578T; > 100 µM (inactive) in the test with MDA-MB-435; > 100 µM (inactive) in the test with MDA-N. Further, the GI50 was > 100 µM (inactive) in the test with Malme-3M; 90.8 µM (inactive) with NCI-H522; 94.4 µM (inactive) in the test with NCI/ADR-RES; > 100 µM (inactive) with PC-3; > 100 µM (inactive) in the test with SK-MEL-2; > 100 µM (inactive) with SK-OV-3. Further, the GI50 in the test with SNB-75 was 35.3 µM (inactive); with T47D, 82.2 µM (inactive); in the test on TK-10, > 100 µM (inactive); in the test on U-251, > 100 µM (inactive); in the test on UACC-257, 63.2 µM (inactive); in the test on UACC-62, > 100 µM (inactive).
`CCOC(=O)NCC(=O)NCC(=O)NCC(N)=O`: the GI50 in the test on A549, in the test on BT-549, in the test on HOP-62, in the test with Hs-578T, in the test on M14 and in the test with MDA-MB-435 was > 100 µM (inactive) in each case. Besides, the GI50 in the test with MDA-N, with Malme-3M, in the test with NCI-H522, with NCI/ADR-RES, with PC-3 and with SK-MEL-2 was > 100 µM (inactive) in each case. Besides, the GI50 with SK-OV-3, in the test on T47D, in the test with TK-10, with U-251, in the test with UACC-257 and in the test on UACC-62 was > 100 µM (inactive) in each case.
With `Cc1c2c(OCCCCN3CCN(c4ncccn4)CC3)nn(C)c(=O)c2c(C)n1-c1ccccc1`, the GI50 in the test on A498 is 16.9 µM (inactive); in the test with A549 it was 20.7 µM (inactive); with BT-549 it was 19.3 µM (inactive); with HOP-62 it was 25.7 µM (inactive); in the test on Hs-578T it was 26.2 µM (inactive); in the test on M14 it was 20.7 µM (inactive). Besides, the GI50 was 18.7 µM (inactive) in the test on MDA-MB-435; 20.2 µM (inactive) in the test on Malme-3M; 18.4 µM (inactive) in the test with NCI-H522; 21.3 µM (inactive) with NCI/ADR-RES; 20.4 µM (inactive) in the test on PC-3; 19.6 µM (inactive) in the test with SK-MEL-2. In addition, the GI50 was 18.7 µM (inactive) in the test with SK-OV-3; 19.5 µM (inactive) in the test on SNB-75; 17.9 µM (inactive) with T47D; 19 µM (inactive) with TK-10; 18.1 µM (inactive) with U-251; 18.7 µM (inactive) with UACC-257. The GI50 with UACC-62 was 16.8 µM (inactive).
With `CC1C2CC(CC2=O)C1(C)C` (configuration not stated), the GI50 with A498, in the test with A549, in the test on BT-549, in the test with HOP-62, in the test with Hs-578T and in the test on M14 was > 100 µM (inactive) each time. In addition, the GI50 with MDA-MB-435, in the test with MDA-N, in the test with Malme-3M, in the test with NCI-H522, in the test on PC-3 and with SK-OV-3 was > 100 µM (inactive) each time. In addition, the GI50 in the test with SNB-75, with T47D, with TK-10, with U-251, in the test with UACC-257 and in the test on UACC-62 was > 100 µM (inactive) throughout.
Take `N#Cc1c(-c2ccccc2)c(C#N)c(=S)n(C2OC(CO)C(O)C(O)C2O)c1N` (configuration not stated): the GI50 in the test on A498 was 38.7 µM (inactive) and 44.2 µM (inactive); with A549, > 100 µM (inactive); in the test on BT-549 it was 46.1 µM (inactive) and 80 µM (inactive); in the test on Hs-578T, 79.8 µM (inactive); with M14, > 100 µM (inactive); in the test with MDA-N, > 100 µM (inactive). Besides, the GI50 was > 100 µM (inactive) in the test with Malme-3M; 33.4 µM (inactive) and 51.5 µM (inactive) in the test with NCI-H522; > 100 µM (inactive) with PC-3; > 100 µM (inactive) in the test with SK-MEL-2; 42.2 µM (inactive) and 64.9 µM (inactive) in the test with SNB-75; 52.6 µM (inactive) and 68.5 µM (inactive) in the test on T47D. In addition, the GI50 in the test with U-251, in the test on UACC-257 and in the test on UACC-62 was > 100 µM (inactive) in each case.
`COC(=O)/C=c1/c2ccccc2n2c1c1ccccc1[n+]2C`: the GI50 in the test on A498 was 4.18 µM (inactive); in the test with A549 it was 3.82 µM (inactive); in the test on BT-549 it was 3.3 µM (inactive); in the test on HOP-62, 3.05 µM (inactive); in the test with Hs-578T, 2.64 µM (inactive); with M14 it was 3.99 µM (inactive). In addition, the GI50 in the test with MDA-MB-435 is 4.2 µM (inactive); in the test with MDA-N, 3.54 µM (inactive); with Malme-3M it was 2.98 µM (inactive); with NCI/ADR-RES, 31.3 µM (inactive); with PC-3, 2.81 µM (inactive); in the test with SK-MEL-2, 4.08 µM (inactive). Moreover, the GI50 in the test with SK-OV-3 was 2.67 µM (inactive); in the test on SNB-75, 3.69 µM (inactive); in the test on T47D, 3.86 µM (inactive); in the test on TK-10, 2.67 µM (inactive); in the test on U-251, 2.61 µM (inactive); in the test with UACC-257, 2.58 µM (inactive). In addition, in the test on UACC-62, the GI50 is 6.73 µM (inactive).
With `CCN(CC)CCC(=O)OC1C(C)=CC(C)C(=O)CC(C(C)CC2CCC(O)C(OC)C2)OC(=O)C2CCCCN2C(=O)C(=O)[C@@]2(O)OC(CCC2C)CC(OC)\C(C)=C/C=C/C=C/C(C)CC(C)C(=O)C1OC` (some centres not stated), the GI50 is < 0.01 µM (active) with A498; < 0.01 µM (active) in the test with A549; < 0.01 µM (active) with BT-549; < 0.01 µM (active) in the test with HOP-62; < 0.01 µM (active) in the test with Hs-578T; 10.4 µM (inactive) in the test on M14. The GI50 with MDA-MB-435 was 4.57 µM (inactive); in the test with MDA-N, 8.61 µM (inactive); in the test on NCI-H522, 12.2 µM (inactive); with NCI/ADR-RES, 11.3 µM (inactive); with PC-3 it was < 0.01 µM (active); in the test with SK-OV-3 it was < 0.01 µM (active). The GI50 was < 0.01 µM (active) in the test with SNB-75; < 0.01 µM (active) in the test on T47D; 5.69 µM (inactive) with TK-10; 10.4 µM (inactive) with U-251; 13.3 µM (inactive) in the test with UACC-257.
Consider `CCOC(=O)Cc1ccc(Nc2nc3cc(F)c(F)cc3nc2C(=O)OCC)cc1`, for which the GI50 with A549 is 74 µM (inactive); in the test on BT-549 it was 55.6 µM (inactive); in the test on HOP-62, > 100 µM (inactive); with Hs-578T, 64.7 µM (inactive); in the test on M14 it was 35.1 µM (inactive); with MDA-MB-435, 65.6 µM (inactive). In addition, the GI50 in the test on MDA-N is 45 µM (inactive); in the test with Malme-3M it was > 100 µM (inactive); in the test with NCI-H522, 9.18 µM (inactive); in the test with NCI/ADR-RES, 43.9 µM (inactive); in the test on PC-3, 49.5 µM (inactive); in the test on SK-MEL-2, 22.9 µM (inactive). In addition, the GI50 was > 100 µM (inactive) in the test on SK-OV-3; 81.8 µM (inactive) in the test on SNB-75; 35.1 µM (inactive) in the test on T47D; > 100 µM (inactive) in the test on TK-10; 28.9 µM (inactive) in the test on U-251; 44.2 µM (inactive) in the test with UACC-257. For the same molecule, the GI50 in the test with UACC-62 was 39.2 µM (inactive).
As to `COc1cc2c(cc1OC)C(=O)/C(=C/c1ccc([N+](=O)[O-])cc1)CC2`, the GI50 in the test on A549, with BT-549, with HOP-62, with Hs-578T, in the test on M14 and in the test on MDA-MB-435 was > 10 µM (inactive) each time. In addition, the GI50 with MDA-N, with Malme-3M, with NCI/ADR-RES, in the test on PC-3, with SK-MEL-2 and with SK-OV-3 was > 10 µM (inactive) each time. Further, the GI50 in the test on T47D, in the test on TK-10, in the test on U-251, in the test with UACC-257 and in the test with UACC-62 was > 10 µM (inactive) throughout.
